The test system of one assay is KP-4 cells. The experiment in a line: Inhibitory activity test of KP-4 cells. Format: cell-based. The settings on record: Homo sapiens, 144 h incubation, read-out: KP-4 cell inhibitory activity IC50. As for the experimental part:
On day 1, cell seeding: after digestion of the cells with trypsin, the cells were resuspended to 1*10^4/mL with RPMI1640 complete medium (HyClone Company, Cat. No. SH30809.01) supplemented with 10% FBS (Gibco, 10099141C), mixed evenly, and added into the 96-well plate at 100 μL/well. The plate was put back to the incubator for the adherent growth of cells. On day 2, the addition of the compounds to be tested: 100 μL of the complete medium containing the compounds (the concentration of the compound in the medium was formulated as follows: 3-fold gradient dilution from 60 μM, 10 concentration gradients in total) was added, incubated for 144 hours at 37° C., 5% CO2. On day 8, the cell culture plates were taken out from incubator and equilibrated to room temperature, excess medium was pipetted from the wells so that 50 μL of supernatant was retained, and 50 μL of CellCounting-Lite 2.0 (Nanjing Vazyme Biotech Co., Ltd., Cat. No. DD1101) reagent was added per well, and the cells were fully lysed by shaking at room temperature for 10 min, and incubated for 5 min to detect the fluorescence intensity.
(§1) % Inhibition=100−(signal of the well with the compound to be tested−signal of the well with only medium and free of cells)/(signal of the well with cells but without addition of the compound−signal of the well with only medium and free of cells)×100.
The log value of concentration was used as the X-axis and % Inhibition was used as the Y-axis, so as to fit the dose-effect curve and calculate the IC50 value using nonlinear regression (dose response−variable slope) in the analysis software GraphPad Prism 8.

A further assay deals with MAT2a (Homo sapiens (Human), UniProt P31153). Nature of the assay: MAT2a enzymatic activity test (colorimetric assay). Format: biochemical. As to conditions: OD620, 150 min reaction, read-out: IC50 against MAT2a. As for the experimental part:
The Colorimetric assay method was used to detect the IC50 value of the tested compounds on MAT2a.
The specific steps were as follows: The compounds having the test starling concentration of 1 μM or 10 μM were diluted into 10 concentration points in a 3-fold gradient. 250 nL of the solutions of the compounds to be tested with 10 different concentrations were taken and added into a 384 well plate for later use. 20 μg/mL of MAT2a enzyme solution was prepared with Assay buffer (50 mM Tris, 50 mM KCl, 10 mM MgCl2, 0.05% polyoxyethylene lauryl ether, pH 8.0). 15 μL of the MAT2a enzyme solution at 20 μg/mL was add into the wells of the compounds to be tested at different concentrations; and 15 μL of Assay buffer was added into the negative control well. An incubation was carried out for 15 minutes after shaking for mixing well. A mixed substrate solution (comprising 400 μM ATP and 600 μM L-Methionine) was prepared with Assay buffer. 10 μL of the mixed substrate solution was added to the positive control well, the compound to be tested well, and the negative control well, respectively, and the reaction began, for a reaction time of 150 min. Then, 50 μL of the reaction stop solution (BIOMOL Green™ Reagent Enzo lifesciences, Cargo No. BML-AK111-1000) was added to stop the reaction, followed by being centrifuged at 1000 rpm for 60 s and then being incubated for 15 min. OD620 was read and data were processed.
By using the log value of the concentration as the X-axis and the inhibition % as the Y-axis, the IC50 value of each compound against enzyme activity was obtained through employing the log(inhibitor) vs. response-Variable slope fitting dose-effect curve of the analysis software GraphPad Prism 5.

In a further assay the test system is HCT116 MTAP-/- cells. The experiment in a line: Activity test of HCT116 MTAP gene homozygous deletion cells (CellTiter-Glo). Format: cell-based. The settings on record: Homo sapiens, HCT-116, 120 h incubation, read-out: HCT116 MTAP-/- Cell IC50. As for the experimental part: On day 1, cell seeding: after digestion of the cells with trypsin, the cells were resuspended to the desired density with the complete medium (RPMI-1640 supplemented with 10% FBS; the brand of FBS is EXCELL, Cat. No. FND500; the brand of RPMI-1640 is ATCC, Cat. No. 30-2001), mixed evenly, and added into the 96-well plate at 100 μL/well with a cell density of 1000-3000 cells per well. The plate was put back to the incubator for the adherent growth of cells. On day 2, the addition of the compounds to be tested: before the addition of the compounds, the cells were starved with serum-free medium for 4 h, then the complete medium containing the corresponding concentration of compounds was added thereto, and the cells were incubated at 37° C., 5% CO2 for 120 h. On day 7, the cell culture plates were taken out from incubator and equilibrated to room temperature. 50 μL of CellTiter-Glo (Promega Company, Cat. No. G7571) reagent was added per well, and the cells were fully lysed by shaking at room temperature for 2 min, and then incubated for another 60 min to detect the fluorescence intensity. Calculation formula:
as §1
The fitting dose-effect curve of the analysis software GraphPad Prism 5 was used to give IC50 values of the individual compounds against cellular activity.
On the technique in general: ATP-based viability assays read luminescence as a measure of living cells.

The structures appear in SMILES notation.

MAT2a, sequence (P31153 whole entry): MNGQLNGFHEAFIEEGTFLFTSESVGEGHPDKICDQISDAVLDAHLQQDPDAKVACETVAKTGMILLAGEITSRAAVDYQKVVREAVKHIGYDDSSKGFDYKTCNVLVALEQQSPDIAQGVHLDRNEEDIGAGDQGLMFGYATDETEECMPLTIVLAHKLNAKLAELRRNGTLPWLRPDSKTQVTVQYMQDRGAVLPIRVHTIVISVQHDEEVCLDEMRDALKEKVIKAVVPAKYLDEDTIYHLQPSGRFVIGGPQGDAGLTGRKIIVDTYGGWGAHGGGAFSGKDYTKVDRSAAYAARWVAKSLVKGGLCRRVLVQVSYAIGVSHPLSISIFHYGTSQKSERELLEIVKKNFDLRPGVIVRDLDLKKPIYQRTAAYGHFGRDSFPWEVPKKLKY

For `Nc1c(-n2cccc2)c(=O)n(-c2ccc(Cl)cc2)c2nc(C(F)(F)F)ccc12` [Example 3, 4-amino-1-(4-chlorophenyl)-3-(1H-pyrrol-1-yl)-7-(trifluoromethyl)-1,8-naphthyridin-2(1H)-one], the IC50 in the assay on KP-4 cells stood at 170 nM; at MAT2a it was 12.7 nM; with HCT116 MTAP-/- cells it was 12.7 nM.

Turning to `CNc1c(-c2nnco2)c(=O)n(-c2ccccc2)c2nc(C(F)(F)F)ccc12` [Example 6, 4-(methylamino)-3-(1,3,4-oxadiazol-2-yl)-1-phenyl-7-(trifluoromethyl)-1,8-naphthyridin-2(1H)-one], the IC50 on MAT2a was found to be 40.5 nM; in the assay with HCT116 MTAP-/- cells it was 494 nM.

In the case of `CNc1c(-c2ncco2)c(=O)n(-c2ccccc2)c2nc(C(F)(F)F)ccc12` [Example 7, 4-(methylamino)-3-(oxazol-2-yl)-1-phenyl-7-(trifluoromethyl)-1,8-naphthyridin-2(1H)-one], the IC50 on MAT2a was 37.9 nM; in the assay with HCT116 MTAP-/- cells, 800 nM.

With `CNc1c(-c2ccccc2)c(=O)n(-c2ccccc2)c2nc(C(F)(F)F)ccc12` [Example 13], the IC50 was 32 nM on MAT2a and 638 nM in the assay with HCT116 MTAP-/- cells.

On to `CNc1c(-n2cccn2)c(=O)n(-c2ccccc2)c2nc(C(F)(F)F)ccc12` [Example 15, 4-(methylamino)-1-phenyl-3-(1H-pyrazol-1-yl)-7-(trifluoromethyl)-1,8-naphthyridin-2(1H)-one], for which the figures for the IC50 in the assay with KP-4 cells, on MAT2a and in the assay on HCT116 MTAP-/- cells were 9730 nM, 23.2 nM and 345 nM, respectively.

Turning to `Nc1c(-c2ccc3c(c2)OCO3)c(=O)n(-c2ccc(Cl)cc2)c2nc(C(F)(F)F)ccc12` [Example 19], the IC50 in the assay on KP-4 cells is 890 nM; at MAT2a, 12.3 nM; in the assay with HCT116 MTAP-/- cells, 13.1 nM.

Regarding `Nc1c(-c2ccc3ncoc3c2)c(=O)n(-c2ccc(Cl)cc2)c2nc(C(F)(F)F)ccc12` [Example 22], the IC50 was 730 nM with KP-4 cells, 15 nM on MAT2a and 20.9 nM in the assay with HCT116 MTAP-/- cells.

On to `Cn1cnc2ccc(-c3c(N)c4ccc(C(F)(F)F)nc4n(-c4ccc(Cl)cc4)c3=O)cc21` [Example 23], for which the IC50 with KP-4 cells turned out to be 610 nM; at MAT2a it was 16.5 nM; in the assay with HCT116 MTAP-/- cells, 23 nM.

In the case of `COc1ccc(-c2c(N)c3ccc(C(F)(F)F)nc3n(-c3ccc(Cl)cc3)c2=O)cc1` [Example 24], the IC50 in the assay with KP-4 cells was determined as 100 nM; at MAT2a it was 15.6 nM; with HCT116 MTAP-/- cells, 11.5 nM.

Regarding `CNc1c(-c2ccc(F)cc2)c(=O)n(-c2ccccc2)c2nc(C(F)(F)F)ccc12` [Example 26], the IC50 with KP-4 cells stood at 10200 nM; on MAT2a it was 17.8 nM; in the assay on HCT116 MTAP-/- cells it was 617 nM.

Turning to `CNc1c(-c2ccc3ncn(C)c3c2)c(=O)n(-c2ccccc2)c2nc(C(F)(F)F)ccc12` [Example 27], the values for the IC50 with KP-4 cells, on MAT2a and with HCT116 MTAP-/- cells were 1620 nM, 17.5 nM and 231 nM, respectively.

With `CNc1c(-c2cncs2)c(=O)n(-c2ccccc2)c2nc(C(F)(F)F)ccc12` [Example 29], the IC50 on MAT2a turned out to be 25.2 nM; in the assay with HCT116 MTAP-/- cells, 427 nM.

`Nc1c(-c2ccco2)c(=O)n(-c2ccc(Cl)cc2)c2nc(C(F)(F)F)ccc12` [Example 30, 4-amino-1-(4-chlorophenyl)-3-(furan-2-yl)-7-(trifluoromethyl)-1,8-naphthyridin-2(1H)-one]: the IC50 in the assay with KP-4 cells worked out at 550 nM; at MAT2a, 13.4 nM; in the assay with HCT116 MTAP-/- cells, 22.3 nM.

Consider `Nc1c(-n2cccn2)c(=O)n(-c2ccc(Cl)cc2)c2nc(C(F)(F)F)ccc12` [Example 38], for which the IC50 came out at 910 nM in the assay on KP-4 cells and 18.1 nM at MAT2a.

On to `Nc1c(-c2ccncn2)c(=O)n(-c2ccc(Cl)cc2)c2nc(C(F)(F)F)ccc12` [Example 39], for which the IC50 was found to be 410 nM in the assay on KP-4 cells and 19.8 nM at MAT2a.

Turning to `Nc1c(-n2cncn2)c(=O)n(-c2ccc(Cl)cc2)c2nc(C(F)(F)F)ccc12` [Example 41], the values for the IC50 in the assay on KP-4 cells and at MAT2a were 3080 nM and 18.4 nM, respectively.

With `Nc1c(-c2ccc(F)cc2)c(=O)n(-c2ccc(Cl)cc2)c2nc(C(F)(F)F)ccc12` [Example 42], the IC50 was determined as 480 nM in the assay with KP-4 cells, 15 nM on MAT2a and 8.38 nM in the assay on HCT116 MTAP-/- cells.

For the compound `Nc1ccc(-c2c(N)c3ccc(C(F)(F)F)nc3n(-c3ccc(Cl)cc3)c2=O)cc1` [Example 43], the IC50 with KP-4 cells was determined as 480 nM; at MAT2a it was 22 nM.

`Nc1c(-c2ccc3ncccc3c2)c(=O)n(-c2ccc(Cl)cc2)c2nc(C(F)(F)F)ccc12` [Example 45]: the IC50 was 190 nM in the assay on KP-4 cells, 14.8 nM at MAT2a and 6.37 nM in the assay with HCT116 MTAP-/- cells.

As for `CS(=O)(=O)CCn1ncc2cc(-c3c(N)c4ccc(C(F)(F)F)nc4n(-c4ccc(Cl)cc4)c3=O)ccc21` [Example 52], the figures for the IC50 in the assay with KP-4 cells and at MAT2a were 760 nM and 16.2 nM, respectively.

As to `Nc1c(-c2ccc3c(c2)OCCO3)c(=O)n(-c2ccc(Cl)cc2)c2nc(C(F)(F)F)ccc12` [Example 53], the IC50 with KP-4 cells turned out to be 240 nM; at MAT2a it was 14.4 nM; in the assay with HCT116 MTAP-/- cells, 21.2 nM.

`Nc1c(-c2ccc3c(c2)NC(=O)CO3)c(=O)n(-c2ccc(Cl)cc2)c2nc(C(F)(F)F)ccc12` [Example 54]: the figures for the IC50 with KP-4 cells and on MAT2a were 960 nM and 16.2 nM, respectively.

`Nc1c(-c2ccc3nnccc3c2)c(=O)n(-c2ccc(Cl)cc2)c2nc(C(F)(F)F)ccc12` [Example 55]: the results for the IC50 with KP-4 cells, on MAT2a and in the assay on HCT116 MTAP-/- cells were 500 nM, 16.3 nM and 23.3 nM, respectively.

Take `COc1cc(-c2c(N)c3ccc(C(F)(F)F)nc3n(-c3ccc(Cl)cc3)c2=O)ccn1` [Example 56]: the IC50 in the assay on KP-4 cells turned out to be 1110 nM; at MAT2a, 14.5 nM; with HCT116 MTAP-/- cells it was 17.8 nM.

On to `Cn1nnc2ccc(-c3c(N)c4ccc(C(F)(F)F)nc4n(-c4ccc(Cl)cc4)c3=O)cc21` [Example 63], for which the IC50 is 17.8 nM on MAT2a and 21.5 nM in the assay on HCT116 MTAP-/- cells.

With `Cn1nc2ccc(-c3c(N)c4ccc(C(F)(F)F)nc4n(-c4ccc(Cl)cc4)c3=O)cc2n1` [Example 64], the IC50 was 15.4 nM at MAT2a and 10.7 nM in the assay on HCT116 MTAP-/- cells.

With `COc1ccc(-c2c(N)c3ccc(C(F)(F)F)nc3n(-c3ccc(Br)cc3)c2=O)cc1` [Example 79, 4-amino-1-(4-bromophenyl)-3-(4-methoxyphenyl)-7-(trifluoromethyl)-1,8-naphthyridin-2(1H)-one], the values for the IC50 on MAT2a and in the assay on HCT116 MTAP-/- cells were 18 nM and 10.9 nM, respectively.

Consider `Cn1cnc2ccc(-c3c(N)c4ccc(C(F)(F)F)nc4n(-c4ccc(Br)cc4)c3=O)cc21` [Example 80], for which the results for the IC50 on MAT2a and in the assay with HCT116 MTAP-/- cells were 15.5 nM and 13.1 nM, respectively.

Take `Nc1c(-c2ccc3nccnc3c2)c(=O)n(-c2ccc(Br)cc2)c2nc(C(F)(F)F)ccc12` [Example 83]: the IC50 was 17.2 nM at MAT2a and 9.12 nM in the assay on HCT116 MTAP-/- cells.

For `COc1cc(-c2c(N)c3ccc(C(F)(F)F)nc3n(-c3ccc(C)cc3)c2=O)ccn1` [Example 87], the IC50 on MAT2a came to 15.4 nM; in the assay with HCT116 MTAP-/- cells, 9.77 nM.

Source of the values: patent US20240228491A1, “METHIONINE ADENOSYLTRANSFERASE INHIBITOR, PREPARATION METHOD THEREFOR AND APPLICATION THEREOF” (SCINNOHUB PHARMACEUTICAL CO., LTD., priority 2021, published 2024).
